For nine molecules, EC50 results are on record in PubChem BioAssay AID588841 (The Scripps Research Institute Molecular Screening Center, 2011).

SMILES strings stand for the structures. Activity calls are given as the source filed them.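 The calls were made as follows: active = EC50 at or below 10 µM; inactive = the rest.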 Bounds are passed on as bounds.

The target in the experiment is cAMP-dependent protein kinase type II-beta regulatory subunit (Homo sapiens) + cAMP-dependent protein kinase catalytic subunit beta (Mus musculus) (UniProt P31323+P68181). Put plainly: PKA-R2B holoenzyme activators, late-stage follow-up, biochemical, fluorescence polarization, powder samples (AID 588841). The following applies: PKA-R2B holoenzyme dissociation, Cy5-IP20 fluorescence polarization. Background: Polarisation of emitted light reports the rotation of a fluorescent probe.

As for `O=C(O)c1sccc1SCc1ccc(Cl)c(Cl)c1`, the EC50 (in general, the midpoint of the concentration-response curve) was > 100 µM (inactive).

In the case of `Cc1ccc(COc2ccsc2C(=O)O)cc1`, the EC50 is > 100 µM (inactive).

Turning to `COC(=O)c1sc2ncccc2c1OCc1ccc(Cl)cc1Cl`, the EC50 was > 100 µM (inactive).

Take `Cc1csc(C(=O)O)c1NC(=O)c1ccc(F)cc1`: the EC50 is > 100 µM (inactive).

In the case of `O=C(O)c1sc2ncccc2c1OCc1ccccc1`, the EC50 is > 100 µM (inactive).

In the case of `O=C(O)c1sccc1SCc1ccc(Cl)cc1Cl`, the EC50 is > 100 µM (inactive).

In the case of `O=C(O)c1sccc1NC(=O)c1c(Cl)cccc1Cl`, the EC50 is > 100 µM (inactive).

Regarding `CC(C)(C)c1ccc(COc2ccsc2C(=O)O)cc1`, the EC50 was > 100 µM (inactive).

As to `COC(=O)c1sc2ncccc2c1OCc1ccccc1Cl`, the EC50 is > 100 µM (inactive).
